Experimental data published in PMC7815716, “Mechanistic basis of breast cancer resistance protein inhibition by new indeno[1,2-b]indoles” (Scientific Reports, 2021).
Where “and” joins values, the source holds several entries; their conditions need not be identical. Equal values may be shown once. Read-outs that look alike come from different tables or passages of the source.

Tests used:
ABCG2 [1] = conditions: cited from earlier work
ABCG2 [2] = molecular target: T1, ABCG2 (Homo sapiens, UniProt Q9UNQ0); assay: Inhibition of ABCG2-mediated mitoxantrone efflux (flow cytometry); assay type: cell-based; parameters: expressed in transfected cells; host or cells: HEK293; conditions: for inhibition at 30 min: human, probe mitoxantrone (10 µM), from IC50 fitted curves, HEK293-ABCG2, mitoxantrone, 100% = Ko143 0.5 µM, read-out: IMAX (%) ± SD, maximal inhibition percentage; for TR, therapeutic ratio (IG50/IC50): ratio between IG50 and IC50 values
T1 sequence (Q9UNQ0 1-655): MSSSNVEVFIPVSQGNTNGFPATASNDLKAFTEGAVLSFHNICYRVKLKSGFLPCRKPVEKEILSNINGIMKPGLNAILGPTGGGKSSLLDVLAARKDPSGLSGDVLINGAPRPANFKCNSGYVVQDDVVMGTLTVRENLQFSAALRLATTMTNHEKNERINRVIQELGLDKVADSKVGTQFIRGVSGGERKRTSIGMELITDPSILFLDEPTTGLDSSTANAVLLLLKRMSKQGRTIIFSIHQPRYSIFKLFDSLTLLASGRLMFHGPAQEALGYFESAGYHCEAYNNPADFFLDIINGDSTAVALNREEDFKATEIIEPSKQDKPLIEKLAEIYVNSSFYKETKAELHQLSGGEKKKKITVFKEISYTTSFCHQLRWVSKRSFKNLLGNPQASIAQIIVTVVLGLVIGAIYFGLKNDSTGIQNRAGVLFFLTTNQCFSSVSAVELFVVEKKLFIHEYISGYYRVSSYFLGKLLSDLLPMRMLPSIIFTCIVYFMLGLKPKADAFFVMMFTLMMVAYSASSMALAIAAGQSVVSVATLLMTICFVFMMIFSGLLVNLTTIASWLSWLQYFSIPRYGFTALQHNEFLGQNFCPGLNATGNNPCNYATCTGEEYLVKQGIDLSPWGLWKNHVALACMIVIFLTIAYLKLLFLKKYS
Method: ABCG2 inhibition assays were carried out on HEK293 WT and HEK293-ABCG2 cells. Cells were seeded at the density of 1 × 10^5 cells/well in 24 well culture plates and incubated for 48 h at 37 °C under 5% CO2. Cells were treated with compounds and 10 μM of mitoxantrone for 30 min at 37 °C and 5% CO2. After incubation the cells were washed with PBS, trypsinized and resuspended in ice cold PBS. The intracellular drug fluorescence was monitored with a FACS Calibur cytometer (Becton Dickinson) using the FL4 channel, with at least 10,000 events collected. The maximal fluorescence (taken as 100%) was determined with the difference between the mean fluorescence of HEK-ABCG2 cells incubated with 0.5 μM Ko143 (ABCG2 reference inhibitor) or by using the HEK293 WT cell line as a control and cells without inhibitor (mitoxantrone alone). The percent of inhibition was determined as previously described. For bimodulation assays the cells were concomitantly treated with 10 μM of one or two combined inhibitors under similar conditions as described previously. For washing assays, cells were treated with 10 μM concentrations of compounds for 30 min. Then, the medium with the inhibitor was removed and the cells were washed with PBS and incubated only with culture medium for different periods of time (0.5 and 3 h). After incubation, cells were exposed to 5 µM mitoxantrone for 30 min, and then analyzed by flow cytometry. The percentage of transport inhibition was calculated by the following equation: %Inhibition=C-S/I-S×100 where “C” corresponds to the intracellular fluorescence of cells in the presence of the tested compounds and substrate (mitoxantrone to ABCG2, Rhodamine 123 to ABCB1 and calcein to ABCC1), “S” corresponds to the intracellular fluorescence of cells in the presence of substrate alone, and “I” corresponds to the intracellular fluorescence of cells in the presence of the substrate and reference inhibitor (Ko143 to ABCG2, GF120918 to ABCB1 and verapamil to ABCC1).

ABCG2 [3] = molecular target: T1, ABCG2; conditions: previously published data, cited from earlier work
HEK293 WT cells = assay: SN-38 cytotoxicity in control cells, MTT assay; assay type: cell-based, human
Method: (§1) Cell viability was evaluated with a 3-(4,5-dimethylthiazol-2-yl)-2,5-diphenyltetrazolium bromide (MTT) colorimetric assay. HEK293 WT and HEK293-ABCG2 cells were seeded into 96-well culture plates at a 1.5 × 10^4 cells/well density. After overnight incubation, the cells were treated with various concentrations of compounds (0–100 µM) for 72 h at 37 °C under 5% CO2. […] Sensitization experiments were also carried out on H460 and H460MX20 cells. For these experiments, H460 and H460MX20 cells were seeded into 96-well culture plates at 1.0 × 10^4 cells/well density. […] After the treatment, the culture medium was removed and 100 μL of a 0.5 mg.mL^−1 MTT solution was added. Cells were then incubated for 4 h at 37 °C under 5% CO2. The formazan crystals were dissolved with a solution of DMSO/ethanol (1:1) and the absorbance was measured at 570 nm using a Multiscan FC microplate reader (Thermo Scientific). The results were expressed as percentage of viable cells versus control cells (0.1% DMSO, v/v) taken as 100%.

ABCG2 [4] = test system: ABCG2; parameters: method as in PMID 15930306; conditions: cited from earlier work
[5] = Intrinsic cytotoxicity of compounds, MTT assay; assay type: cell-based, human; conditions: human, HEK293 WT and HEK293-ABCG2 cells, MTT, read-out: IG50 (µM) ± SD, cytotoxicity (half-maximal cell viability)
Method: as §1

[6] = HEK293-ABCG2 cells, mitoxantrone 10 µM, 30 min, read-out: IC50 (µM) ± SD, inhibition of ABCG2-mediated mitoxantrone efflux

O=C1c2c(O)ccc(O)c2C(=O)c2c(NCCNCCO)ccc(NCCNCCO)c21 [mitoxantrone]
Stimulation of the ATPase activity of ABCG2 (ABCG2 [1]): 40%

COc1ccccc1CCn1c2c(c3c1-c1cccc(O)c1C3=O)C(=O)CCC2 [5h, 1-Hydroxy-5-(2-methoxyphenethyl)-5,6,7,8-tetrahydroindeno[1,2-b]indole-9,10-dione]
IC50 (ABCG2 [2]; [6]): 0.42 ± 0.07 µM | inhibition at 30 min (ABCG2 [2]; HEK293-ABCG2 cells): 69.6 ± 1.14% | TR, therapeutic ratio (IG50/IC50) (ABCG2 [2]): 57.21 | melting point: 173 °C

COc1cccc(CCn2c3c(c4c2-c2ccccc2C4=O)C(=O)CCC3)c1 [p4k]
TR, therapeutic ratio (IG50/IC50) (ABCG2 [3]): 41.00

CCc1c2c(nc3ccc(O)cc13)-c1cc3c(c(=O)n1C2)COC(=O)[C@]3(O)CC [SN-38]
FR, fold reversal (HEK293 WT cells; SN-38 alone (reference)): 1.00 | IC50 (HEK293 WT cells; SN-38 alone, 72 h, read-out: IG50 (SN-38 nM ± SD)): 8.24 nM and 7.53 nM and 10 nM and 7.58 nM

COc1ccc2[nH]cc(CCn3c4c(c5c3-c3ccccc3C5=O)C(=O)CCC4)c2c1 [5c, 5-(2-(5-Methoxy-1H-indol-3-yl)ethyl)-5,6,7,8-tetrahydroindeno[1,2-b]indole-9,10-dione]
IC50 (ABCG2 [2]; [6]): 0.65 ± 0.03 µM | inhibition at 30 min (ABCG2 [2]; HEK293-ABCG2 cells): 60 ± 4.04% | TR, therapeutic ratio (IG50/IC50) (ABCG2 [2]): 56.41 | melting point: 279 °C

CC1CC(=O)c2c3c(n(CCc4ccccc4)c2C1)-c1cccc(O)c1C3=O (centres unmarked) [5f, 1-Hydroxy-7-Methyl-5-phenethyl-5,6,7,8-tetrahydroindeno[1,2-b]indole-9,10-dione]
IC50 (ABCG2 [2]; [6]): 0.18 ± 0.02 µM | inhibition at 30 min (ABCG2 [2]; HEK293-ABCG2 cells): 48.4 ± 0.8% | TR, therapeutic ratio (IG50/IC50) (ABCG2 [2]): 153.24 | melting point: 246 °C

COc1cc2c(cc1OC)-c1c(c3c(O)cc(C)cc3n1CCc1ccccc1)C2=O [6e, 9-Hydroxy-2,3-dimethoxy-7-methyl-5-phenethylindeno[1,2-b]indol-10(5H)-one]
IC50 (ABCG2 [2]): 0.2 ± 0.04 µM | inhibition at 30 min (ABCG2 [2]; HEK293-ABCG2 cells): 66.8 ± 1.79% | TR, therapeutic ratio (IG50/IC50) (ABCG2 [2]): 212.38 | melting point: 198 °C

CC1CC(=O)c2c3c(n(CCc4ccccc4)c2C1)-c1c(O)cccc1C3=O (centres unmarked) [5g, 4-Hydroxy-7-methyl-5-phenethyl-5,6,7,8-tetrahydroindeno[1,2-b]indole-9,10-dione]
IC50 (ABCG2 [2]; [6]): 0.44 ± 0.03 µM | inhibition at 30 min (ABCG2 [2]; HEK293-ABCG2 cells): 65.2 ± 0.94% | TR, therapeutic ratio (IG50/IC50) (ABCG2 [2]): 58.79 | melting point: 283 °C

COc1ccccc1CCn1c2c(c3c1-c1ccccc1C3=O)C(=O)CC(C)C2 (centres unmarked) [5a, 5-(2-Methoxyphenethyl)-7-methyl-5,6,7,8-tetrahydroindeno[1,2-b]indole-9,10-dione]
IC50 (ABCG2 [2]; [6]): 0.25 ± 0.01 µM | inhibition at 30 min (ABCG2 [2]; HEK293-ABCG2 cells): 72.5 ± 3.72% | TR, therapeutic ratio (IG50/IC50) (ABCG2 [2]): > 393.60 | melting point: 204 °C

CC(C)=CCc1c(O)cc2oc(-c3ccccc3)cc(=O)c2c1O [6-prenylchrysin]
Maximal inhibition of ABCG2 (ABCG2 [4]): approximately 70%

COc1cc2nc(N3CCN(C(=O)c4ccco4)CC3)nc(N)c2cc1OC [prazosin]
Stimulation of the ATPase activity of ABCG2 (ABCG2 [1]): 100%

CC(C)=CCOc1cccc2c1-c1c(c3c(n1CCc1ccccc1)CC(C)CC3=O)C2=O (centres unmarked) [5n]
IC50 (ABCG2 [2]; [6]): 4.09 ± 0.56 µM | inhibition at 30 min (ABCG2 [2]; HEK293-ABCG2 cells): 133 ± 3.35% | TR, therapeutic ratio (IG50/IC50) (ABCG2 [2]): 5.26

COc1ccccc1CCn1c2c(c3c1-c1c(OCC=C(C)C)cccc1C3=O)C(=O)CCC2 [5k, 5-(2-Methoxyphenethyl)-4-(3-methylbut-2-enyloxy)-5,6,7,8-hexahydroindeno[1,2-b]indole-9,10-dione]
IC50 (ABCG2 [2]; [6]): 0.92 ± 0.1 µM | inhibition at 30 min (ABCG2 [2]; HEK293-ABCG2 cells): 116 ± 2.36% | TR, therapeutic ratio (IG50/IC50) (ABCG2 [2]): 22.85

COc1ccccc1CCn1c2c(c3c1-c1cccc(OCC=C(C)C)c1C3=O)C(=O)CC(C)C2 (centres unmarked) [5l, 5-(2-Methoxyphenethyl)-7-methyl-1-((3-methylbut-2-enyl)oxy)-5,6,7,8-tetrahydroindeno[1,2-b]indole-9,10-dione]
IC50 (ABCG2 [2]; [6]): 0.24 ± 0.03 µM | inhibition at 30 min (ABCG2 [2]; HEK293-ABCG2 cells): 82.3 ± 3.44% | TR, therapeutic ratio (IG50/IC50) (ABCG2 [2]): 59.72

COc1ccccc1CCn1c2c(c3c1-c1cccc(OCC=C(C)C)c1C3=O)C(=O)CCC2 [5j, 5-(2-Methoxyphenethyl)-1-(3-methylbut-2-enyloxy)-5,6,7,8-tetrahydroindeno[1,2-b]indole-9,10-dione]
IC50 (ABCG2 [2]; [6]): 0.48 ± 0.08 µM | inhibition at 30 min (ABCG2 [2]; HEK293-ABCG2 cells): 85.6 ± 2.59% | TR, therapeutic ratio (IG50/IC50) (ABCG2 [2]): 32.86 | melting point: 118 °C

COc1ccccc1CCn1c2c(c3c1-c1cccc(O)c1C3=O)C(=O)CC(C)C2 (centres unmarked) [5i, 1-Hydroxy-7-methyl-5-(2-methoxyphenethyl)-5,6,7,8-tetrahydroindeno[1,2-b]indole-9,10-dione]
IC50 (ABCG2 [2]; [6]): 0.07 ± 0.02 µM | inhibition at 30 min (ABCG2 [2]; HEK293-ABCG2 cells): 62.83 ± 0.48% | TR, therapeutic ratio (IG50/IC50) (ABCG2 [2]): 293.66 | IC50 at 72 h [5]: 20 µM

COc1ccc2c3c([nH]c2c1)[C@H](CC(C)C)N1C(=O)[C@H](CCC(=O)OC(C)(C)C)NC(=O)[C@@H]1C3 [Ko143]
Effect on the ATPase activity of ABCG2 (ABCG2 [1]): inhibit the ATPase activity

O=C1c2ccccc2-c2c1c1c(n2CCc2ccccc2)CCC(Cc2ccccc2)C1=O (centres unmarked) [5b, 8-Benzyl-5-phenethyl-5,6,7,8-hexahydroindeno[1,2-b]indole-9,10-dione]
IC50 (ABCG2 [2]; [6]): 0.45 ± 0.1 µM | inhibition at 30 min (ABCG2 [2]; HEK293-ABCG2 cells): 113 ± 3.67% | TR, therapeutic ratio (IG50/IC50) (ABCG2 [2]): 28.10

COc1ccccc1CCn1c2c(c3c1-c1ccccc1C3=O)C(=O)CCC2 [p4j]
TR, therapeutic ratio (IG50/IC50) (ABCG2 [3]): 130.00

CC1CC(=O)c2c3c(n(CCc4ccccc4)c2C1)-c1ccccc1C3=O (centres unmarked) [p4h]
TR, therapeutic ratio (IG50/IC50) (ABCG2 [3]): > 435.00

COc1cccc(CCn2c3c(c4c2-c2cc(O)ccc2C4=O)C(=O)CCC3)c1 [5d, 3-Hydroxy-5-(3-methoxyphenethyl)-5,6,7,8-tetrahydroindeno[1,2-b]indole-9,10-dione]
IC50 (ABCG2 [2]; [6]): 2.71 ± 0.14 µM | inhibition at 30 min (ABCG2 [2]; HEK293-ABCG2 cells): 68.5 ± 0.68% | TR, therapeutic ratio (IG50/IC50) (ABCG2 [2]): 9.85 | melting point: 222 °C

Cc1cc(O)c2c3c(n(CCc4ccccc4)c2c1)-c1ccccc1C3=O [p5h]
TR, therapeutic ratio (IG50/IC50) (ABCG2 [3]): 360.00 | IC50 (ABCG2 [3]; read-out: IC50 (µM) ± SD, inhibition of ABCG2-mediated mitoxantrone efflux): 0.15 ± 0.01 µM

COc1ccccc1CCn1c2c(c3c1-c1c(OCC=C(C)C)cccc1C3=O)C(=O)CC(C)C2 (centres unmarked) [5m, 5-(2-Methoxyphenethyl)-7-methyl-4-((3-methylbut-2-enyl)oxy)-5,6,7,8-hexahydroindeno[1,2-b]indole-9,10-dione]
IC50 (ABCG2 [2]; [6]): 0.19 ± 0.07 µM | inhibition at 30 min (ABCG2 [2]; HEK293-ABCG2 cells): 87.4 ± 2.46% | TR, therapeutic ratio (IG50/IC50) (ABCG2 [2]): 66.23
